Data: PubChem BioAssay (NCI)
Several values for one entry are separate records, joined by “and”; a condition that tells them apart may be missing. Equal entries are not always repeated.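 Step 1: Grow cells in 96-well plates. Step 2: Expose to compound for 48 hours at 5 concentrations. Step 3: Interpolate endpoints linearly; if unreached, use highest concentration. Abbreviation: GI50, concentration required for 50% inhibition of growth. The concentration for full growth arrest is given as TGI.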

Assays:
Experiment in all cases: NCI-60 cell line screen, 48 h
SW-620 colon = system: SW-620 colon
NCI-H522 lung = system: NCI-H522 lung
A549 NSCLC = system: A549 NSCLC
HOP-92 NSCLC = system: HOP-92 NSCLC
RXF 393 renal = system: RXF 393 renal
SF-268 CNS = system: SF-268 CNS
NCI/ADR-RES ovarian = system: NCI/ADR-RES ovarian
HCT-116 colon = system: HCT-116 colon
SN12C renal = system: SN12C renal
RPMI-8226 leukemia = system: RPMI-8226 leukemia

Structure (SMILES)	TGI (SW-620 colon)	TGI (NCI-H522 lung)	TGI (A549 NSCLC)	TGI (HOP-92 NSCLC)	TGI (RXF 393 renal)	TGI (SF-268 CNS)	TGI (NCI/ADR-RES ovarian)	TGI (HCT-116 colon)	TGI (SN12C renal)	TGI (RPMI-8226 leukemia)	GI50 (SW-620 colon)	GI50 (NCI-H522 lung)	GI50 (A549 NSCLC)	GI50 (HOP-92 NSCLC)	GI50 (RXF 393 renal)	GI50 (SF-268 CNS)	GI50 (NCI/ADR-RES ovarian)	GI50 (HCT-116 colon)	GI50 (SN12C renal)	GI50 (RPMI-8226 leukemia)
CC(C)c1[nH]nc(C(N)=O)c1N=NN(C)C	> 100 µM	67.8 µM	> 100 µM	> 100 µM	> 100 µM	> 100 µM	> 100 µM	> 100 µM	> 100 µM	> 100 µM	–	–	–	–	–	–	–	–	–	–
CC(=O)Nc1ccc2c(c1)C(c1ccccc1Cl)=Nc1c(n[nH]c1C)N2	> 25 µM	> 25 µM	> 25 µM	16.4 µM	9.59 µM	> 21.4 µM	> 25 µM	> 25 µM	> 25 µM	> 25 µM	1.55 µM	> 15.9 µM	4.46 µM	1.41 µM	1.02 µM	3.01 µM	> 25 µM	2.49 µM	5.05 µM	> 25 µM
CCOC(=O)c1cc(C(=O)c2cc(OC)c(OC)c(OC)c2)n2ncccc12	> 100 µM	> 21.7 µM	> 100 µM	> 100 µM	1.84 µM	> 100 µM	> 42.9 µM	> 100 µM	> 100 µM	–	0.185 µM	0.29 µM	0.621 µM	48.5 µM	0.215 µM	3.02 µM	0.237 µM	0.276 µM	0.821 µM	0.316 µM
CCOC(=O)c1ccc(NC(=O)Nc2nncs2)cc1	> 100 µM	1.87 µM	26.1 µM	0.947 µM	0.489 µM	22.9 µM	10.6 µM	11.8 µM	16.1 µM	10.2 µM	0.0818 µM	0.0746 µM	0.41 µM	–	0.14 µM	0.952 µM	0.229 µM	0.109 µM	0.662 µM	0.499 µM
COc1cc(/C=C\c2cc(OC)c(OC)c(OC)c2)cc(N/C=C\C(=O)c2ccc(OC(F)(F)F)cc2)c1OC	> 100 µM	6.19 µM	> 100 µM	> 100 µM	7.17 µM	> 100 µM	9.85 µM	> 100 µM	> 100 µM	19.6 µM	4.09 µM	1.96 µM	4.54 µM	12.6 µM	2.18 µM	8.9 µM	3.04 µM	3.58 µM	4.85 µM	3.66 µM
COC[C@@H](N=C1NC(=O)/C(=C/c2ccc3ncccc3c2)S1)c1ccccc1	> 25 µM	> 23.3 µM	> 25 µM	> 21.1 µM	> 24.2 µM	> 25 µM	> 25 µM	> 25 µM	> 25 µM	20.7 µM	8.91 µM	7.7 µM	6.72 µM	5.07 µM	6.47 µM	11.8 µM	11.6 µM	8.73 µM	8.52 µM	6.13 µM
COc1ccc(/C=C(/C#N)C(N)=O)c(OC)c1	> 100 µM	> 100 µM	> 100 µM	> 100 µM	> 100 µM	> 100 µM	> 100 µM	> 100 µM	> 100 µM	> 100 µM	–	–	–	–	–	–	–	–	–	–
COc1ccc(C2CC(c3cccc(Nc4ccnc5cc(Cl)ccc45)c3)=NN2C=O)cc1 (stereo not given)	> 100 µM	3.06 µM	18.3 µM	> 100 µM	7.39 µM	> 100 µM	4.92 µM	2.56 µM	> 100 µM	> 24 µM	0.333 µM	0.265 µM	0.527 µM	> 100 µM	0.883 µM	1.37 µM	0.379 µM	0.398 µM	0.807 µM	3.64 µM
Cc1nc([P+](c2ccccc2)(c2ccccc2)c2ccccc2)c(Sc2sc(-c3ccccc3)nc2[P+](c2ccccc2)(c2ccccc2)c2ccccc2)o1	2.85 µM	6.15 µM	10.7 µM	3.73 µM	5.26 µM	7.71 µM	19.8 µM	2.94 µM	6.88 µM	1.25 µM	0.637 µM	1.43 µM	1.87 µM	0.759 µM	1.78 µM	2.02 µM	3.7 µM	0.896 µM	1.72 µM	0.27 µM
CC1=CC(=O)C2=C(C)CCC3C(C)C(=O)OC3C12 (stereo not given)	> 100 µM	> 100 µM	> 100 µM	> 100 µM	> 100 µM	> 100 µM	> 100 µM	> 100 µM	> 100 µM	> 100 µM	–	–	–	–	–	–	–	–	–	–
COc1ccc2c(c1)/C(=C\c1c(-c3cc(OC)ccc3OC)nc3sc(C)cn13)C(=O)N2C	> 100 µM	> 100 µM	> 100 µM	37.6 µM	> 100 µM	> 100 µM	> 100 µM	> 100 µM	> 100 µM	58.4 µM	42.6 µM	29.6 µM	38.6 µM	4.33 µM	> 100 µM	28.6 µM	27.4 µM	22.3 µM	24.7 µM	9.13 µM
Nc1nccc(-c2c(-c3ccc(F)cc3)ncn2C2CCNCC2)n1	> 25 µM	> 25 µM and 7.22 µM	> 25 µM	> 25 µM	> 25 µM and 10.5 µM	> 25 µM	> 25 µM	> 25 µM	> 25 µM	> 25 µM	4.25 µM and 1.38 µM	6.98 µM and 2.04 µM	1.97 µM and 1.66 µM	3.07 µM	2.35 µM and 3.6 µM	5.92 µM and 2.76 µM	> 25 µM and 5.1 µM	3.52 µM and 1.47 µM	7.71 µM and 2.13 µM	12.6 µM and 7.07 µM
CC(=O)O[C@H]1C(=O)[C@@]2(C)C(C(OC(=O)c3ccccc3)[C@]3(O)C[C@H](OC(=O)C(OC(=O)CCCC(=O)NCCCN(C)C)C(NC(=O)c4ccccc4)c4ccccc4)C(C)=C1C3(C)C)C1(OC(C)=O)COC1C[C@@H]2O (stereo not given in full)	22.4 µM	< 0.0105 µM	> 85.3 µM	37.2 µM	3.27 µM	75.3 µM	70.7 µM	1.53 µM	75.5 µM	28.7 µM	–	–	–	–	–	–	–	–	–	–
CCN(CCCN(C)C)Cc1cc(I)cc(C)c1O	31.9 µM	36.4 µM	90 µM	52.3 µM	51.1 µM	45.7 µM	> 100 µM	32 µM	> 100 µM	34 µM	17.1 µM	18.7 µM	28.3 µM	10.8 µM	17.1 µM	18.7 µM	27 µM	14.6 µM	59.9 µM	15.1 µM
OCCN1CCN(CCCN2c3ccccc3Sc3ccc(Cl)cc32)CC1	3.52 µM	3.13 µM	15.2 µM	6.72 µM	7.68 µM	10.7 µM	9.91 µM	3.55 µM	14.2 µM	6.7 µM	1.77 µM	1.5 µM	3.68 µM	1.37 µM	1.96 µM	2.79 µM	2.72 µM	1.76 µM	3.42 µM	2.29 µM
O=C(Nc1ccc2[nH]nc(-c3ccncc3)c2c1)[C@@H]1CCN(CC(=O)N2CCN(c3ccc(-c4ncccn4)cc3)CC2)C1	> 100 µM	> 100 µM	> 100 µM	1.81 µM	> 100 µM	> 100 µM	> 100 µM	> 44.6 µM	> 100 µM	> 66.7 µM	0.101 µM	7.27 µM	5.09 µM	0.105 µM	2.84 µM	> 69.7 µM	> 100 µM	0.0783 µM	> 100 µM	4.29 µM
CCSCC1CC(O)(c2ccccc2)CC(c2ccc(F)cc2)O1 (stereo not given)	4.42 µM	5.88 µM	11 µM	2.72 µM	3.47 µM	6.11 µM	6.66 µM	3.02 µM	3.17 µM	6.46 µM	1.98 µM	1.94 µM	2.74 µM	1.25 µM	1.68 µM	2.41 µM	2.44 µM	1.66 µM	1.74 µM	1.95 µM
c1ccc2sc(SCCSc3nc4ccccc4s3)nc2c1	> 100 µM	> 100 µM	> 100 µM	> 100 µM	> 100 µM	> 100 µM	> 100 µM	> 100 µM	> 100 µM	> 100 µM	–	–	–	–	–	–	–	–	–	–
Cc1cccc(N(C)C(=O)[C@@H]2[C@H](O)CCN2c2nc(C)cc(C(F)(F)F)c2C#N)c1	> 100 µM	32 µM	> 100 µM	53.1 µM	40.1 µM	> 100 µM	89.1 µM	29 µM	50.1 µM	41.6 µM	37.8 µM	10.7 µM	21.9 µM	11 µM	14.6 µM	26.5 µM	22.6 µM	15.4 µM	17.3 µM	16.3 µM
O=c1c2c(=NCCN3CCCC3)cc3c(=O)n(CCCN4CCOCC4)c(=O)c4c(-c5ccc(CN6CCCC6)cc5)cc(c(O)n1CCCN1CCOCC1)c2c4-3	0.342 µM	0.135 µM	1.39 µM	0.0735 µM	0.0779 µM	0.567 µM	9.65 µM	0.209 µM	1.37 µM	0.409 µM	0.0186 µM	0.0265 µM	0.0288 µM	0.0178 µM	0.0204 µM	0.0781 µM	0.364 µM	0.0101 µM	< 0.0221 µM	0.0368 µM
NNC(=S)N/N=C(\C(=O)Nc1cccc(O)c1)C1C(=O)NC(=S)NC1=O	> 100 µM	> 100 µM	> 100 µM	> 100 µM	> 100 µM	> 100 µM	> 100 µM	> 100 µM	> 100 µM	> 100 µM	–	–	–	–	–	–	–	–	–	–
c1cc(NNc2cccc(-c3nn[nH]n3)c2)cc(-c2nn[nH]n2)c1	> 100 µM	> 100 µM	> 100 µM	> 100 µM	> 100 µM	> 100 µM	> 100 µM	> 100 µM	> 100 µM	> 100 µM	–	–	–	–	–	–	–	–	–	–
O=C(CC(Cl)=C(Cl)Cl)Nc1ccccc1	> 100 µM	> 100 µM	> 100 µM	> 100 µM	> 100 µM	> 100 µM	> 100 µM	> 100 µM	> 100 µM	> 100 µM	> 100 µM	> 100 µM	> 100 µM	–	> 100 µM	> 100 µM	> 100 µM	> 100 µM	> 100 µM	> 100 µM
C/C(=N\NC(=S)N1CCCCC1)c1ccccn1	7.18 µM	1.51 µM	4.14 µM	4.54 µM	1.79 µM	12.3 µM	6.77 µM	1.52 µM	14.3 µM	0.849 µM	0.0142 µM	0.136 µM	0.0235 µM	0.0963 µM	0.295 µM	0.0762 µM	< 0.01 µM	< 0.01 µM	0.29 µM	0.016 µM
C=C1CC[C@@H]2[C@](C)(COC(C)=O)[C@H](OC(C)=O)CC[C@@]2(C)[C@@H]1CC(Nc1ccc(S(=O)(=O)NC(C)=O)cc1)C1=CCOC1=O (stereo not given in full)	3.58 µM	4.42 µM	18.3 µM	15.8 µM	4.69 µM	20.5 µM	9.14 µM	3.66 µM	5.4 µM	6.53 µM	1.61 µM	1.44 µM	8.41 µM	6.5 µM	1.96 µM	8.78 µM	2.51 µM	1.67 µM	1.78 µM	1.84 µM
Cc1cc(S(=O)(=O)Nc2nc3ccccc3o2)c(SCc2ccccc2)cc1Cl	56.4 µM	> 100 µM	45.3 µM	20.9 µM	61.5 µM	47.7 µM	40.9 µM	33.4 µM	90.1 µM	30.1 µM	20.6 µM	> 100 µM	21.7 µM	4.65 µM	29.5 µM	18.9 µM	20 µM	13.8 µM	32.1 µM	11.2 µM
CCN1C/C(=C\c2cc(OC)c(OC)cc2OC)C(=O)/C(=C/c2cc(OC)c(OC)cc2OC)C1	13.3 µM	12 µM	> 100 µM	17.8 µM	7.38 µM	–	> 100 µM	3.84 µM	9.14 µM	6.78 µM	3.2 µM	3.05 µM	3.67 µM	2.46 µM	2.32 µM	–	3.12 µM	1.84 µM	3.11 µM	2.35 µM
